From article PMC8723806 (Journal of the Iranian Chemical Society, 2022)

How the values were obtained:
COX-2 = target: T1, COX-2 (Ovis aries, UniProt P79208); experiment: In vitro COX-2 inhibition, colorimetric enzyme immune assay; format: biochemical, ovine; conditions: for COX-2 SI (COX-1 IC50/COX-2 IC50): in vitro COX-2 selectivity index; for COX-2 inhibition, in words: compared with celecoxib
T1 sequence (P79208 17-603): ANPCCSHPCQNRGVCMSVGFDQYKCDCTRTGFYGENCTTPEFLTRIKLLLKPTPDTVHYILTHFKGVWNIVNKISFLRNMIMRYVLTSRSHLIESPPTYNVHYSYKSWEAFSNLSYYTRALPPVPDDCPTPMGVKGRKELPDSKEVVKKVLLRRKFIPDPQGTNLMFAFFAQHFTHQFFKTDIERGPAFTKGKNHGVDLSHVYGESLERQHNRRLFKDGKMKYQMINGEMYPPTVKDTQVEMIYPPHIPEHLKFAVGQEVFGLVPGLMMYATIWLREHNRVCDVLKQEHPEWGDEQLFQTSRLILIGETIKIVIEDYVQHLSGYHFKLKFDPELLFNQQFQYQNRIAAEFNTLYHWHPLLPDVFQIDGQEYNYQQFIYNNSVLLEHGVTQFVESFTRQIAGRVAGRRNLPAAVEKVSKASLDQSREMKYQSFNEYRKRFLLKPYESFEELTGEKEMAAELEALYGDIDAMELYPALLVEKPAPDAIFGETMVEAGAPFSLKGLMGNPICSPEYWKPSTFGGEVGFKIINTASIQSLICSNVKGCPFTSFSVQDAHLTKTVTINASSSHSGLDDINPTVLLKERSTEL

COX-1 = target: T2, COX-1 (Ovis aries, UniProt P05979); experiment: In vitro COX-1 inhibition, colorimetric enzyme immune assay; format: biochemical, ovine
T2 sequence (P05979 25-600): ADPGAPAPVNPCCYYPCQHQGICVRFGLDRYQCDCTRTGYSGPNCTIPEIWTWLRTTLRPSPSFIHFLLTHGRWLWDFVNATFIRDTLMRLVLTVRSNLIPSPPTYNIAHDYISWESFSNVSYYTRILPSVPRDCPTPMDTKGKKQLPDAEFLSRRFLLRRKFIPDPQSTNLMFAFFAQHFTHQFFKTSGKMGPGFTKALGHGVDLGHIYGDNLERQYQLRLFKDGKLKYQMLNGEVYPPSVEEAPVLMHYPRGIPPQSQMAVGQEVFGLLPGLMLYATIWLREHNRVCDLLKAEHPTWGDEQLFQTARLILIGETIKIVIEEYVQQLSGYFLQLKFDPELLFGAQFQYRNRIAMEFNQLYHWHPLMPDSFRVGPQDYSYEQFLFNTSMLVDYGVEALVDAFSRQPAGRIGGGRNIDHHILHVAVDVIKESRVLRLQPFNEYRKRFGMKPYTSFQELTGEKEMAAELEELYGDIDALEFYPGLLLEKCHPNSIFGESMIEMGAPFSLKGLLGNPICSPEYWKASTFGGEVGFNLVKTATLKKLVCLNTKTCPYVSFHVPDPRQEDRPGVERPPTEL

Compound: O=[N+]([O-])c1ccc(-c2ccccc2F)cc1 [Compound 3a, 2-Fluoro-4'-nitrobiphenyl]
- COX-2 SI (COX-1 IC50/COX-2 IC50) (COX-2): 84.16

Compound: Fc1ccccc1-c1ccc(F)c(C(F)(F)F)c1 [Compound 3b, 2,4'-Difluoro-3'-(trifluoromethyl) biphenyl]
- IC50 (COX-1): 11.2 µM
- COX-2 SI (COX-1 IC50/COX-2 IC50) (COX-2): 101.99

Compound: Fc1ccc(-c2ccccc2F)cc1OC(F)(F)F [Compound 3c, 2,4'-Difluoro-3'-(trifluoromethoxy)biphenyl]
- COX-2 SI (COX-1 IC50/COX-2 IC50) (COX-2): 109.9

Compound: O=[N+]([O-])c1cccc(-c2ccccc2F)c1F [Compound 3d, 2,2'-Difluoro-3-nitrobiphenyl]
- COX-2 SI (COX-1 IC50/COX-2 IC50) (COX-2): 68.06

Compound: COc1ccccc1-c1ccc([N+](=O)[O-])cc1 [Compound 3f, 2-Methoxy-4'-nitrobiphenyl]
- COX-2 inhibition, in words (COX-2): less potency
- COX-2 SI (COX-1 IC50/COX-2 IC50) (COX-2): 32.55

Compound: COc1ccccc1-c1ccc(F)c(C(F)(F)F)c1 [Compound 3g, 4'-Fluoro-2-methoxy-3'-(trifluoromethyl)biphenyl]
- COX-2 SI (COX-1 IC50/COX-2 IC50) (COX-2): 76.84

Compound: COc1ccccc1-c1ccc(F)c(OC(F)(F)F)c1 [Compound 3h, 4'-Fluoro-2-methoxy-3'-(trifluoromethoxy)biphenyl]
- COX-2 SI (COX-1 IC50/COX-2 IC50) (COX-2): 67.31

Compound: COc1ccccc1-c1cccc([N+](=O)[O-])c1F [Compound 3i, 2-Fluoro-2'-methoxy-3-nitrobiphenyl]
- COX-2 inhibition, in words (COX-2): less potency
- COX-2 SI (COX-1 IC50/COX-2 IC50) (COX-2): 54.94

Compound: COc1ccc(F)c(-c2ccccc2OC)c1 [Compound 3j, 2-Fluoro-2',5-dimethoxybiphenyl]
- COX-2 inhibition, in words (COX-2): less potency
